Experimental data reported in US12667546B2, “Methods for manipulating cell state transitions in cancer” (AGENCY FOR SCIENCE, TECHNOLOGY AND RESEARCH, priority 2018, dated 2026).
“And” between values parts separate entries of the source, which are not always exact repeats. Equal values may be shown once. Where a name gives a salt, the structure may show the parent alone. Read-outs that look alike come from different tables or passages of the source.

What was measured:
[1] = system: NAMEC8-SERPINE1prom-Luc cells; test: Renilla-luciferase (constitutive CMV promoter) readout for cell numbers; format: cell-based, human; details: for viability at 10 µM: Homo sapiens, 72 h, read-out: % Avr Renilla from DMSO
[2] = system: SERPINE1prom-Luc reporter in NAMEC8 cells; test: Dual-Glo luciferase assay of SERPINE1prom-Luc reporter (FF/Ren); format: cell-based, human; details: for activity at 10 µM: Homo sapiens, 72 h, read-out: Avr FF/Renilla from DMSO; for dose-dependent change of SERPINE1 promoter activity: dose response (metabolic hits 10 nM to 2 μM; epigenetic hits six concentrations)
Description: pGreenFire1-mCMV was cut using ClaI and SpeI and gel purified. Promoter sequences of genes Zeb1, Serpine1, CDH1, CD24, CD44, CD166 were amplified from human genomic DNA with pre-designed primers containing ClaI and SpeI restriction cut sites using AccuPrime Taq DNA Polymerase (Thermo Fisher Scientific). PCR products were then digested with restriction enzymes and gel-purified. Vector was ligated with PCR insert using Quick Ligase (Fermentas) and transformed into Stb12 competent cells. Colonies were picked and inoculated into TB media with ampicillin. Plasmids were then isolated using a plasmid miniprep kit (Qiagen) and sent for sequencing (1 stBASE Laboratories). After verifying the plasmid sequence, transfection into HEK293 cells was carried out to generate lentivirus. Transfection was carried out using FuGENE 6 (Promega). Viral supernatant was harvested at 24 h and 48 h. NAMEC8 cells were then infected twice with virus using polybrene ([…]) and checked for good transduction efficiency using Dual-Glo Luciferase System (Promega).
Stock plates of compound libraries were kindly prepared by GIS CHiP facility at 1 mM concentration in DMSO. NAMEC8-SERPINE1prom-Luc cells were seeded into 384 well plates at a density of 700 cells/well in a total volume of 50 μl, using an automated dispensing system (BioTek). 0.5 μl of compounds were then added to the wells the following day using a robotic pin transfer with a Bravo workstation (Agilent Technologies). Cells were then grown for 3 days and promoter-luciferase activity was measured using the Dual-Glo Luciferase System (Promega).
Assay was carried out according to manufacturer's instructions. To measure luciferase activity in 384 well plates, media was first removed from the plate. Firefly luciferase activity was determined by adding 30 μl Dual-Glo Luciferase substrate (Promega) to the wells and incubated for 10 min before measuring luminescence using a TECAN M1000 Pro plate reader. 15 μl Dual-Glo Stop & Glo substrate was then added to the wells, incubated for 10 min and measuring luminescence on the plate reader to determine Renilla luciferase activity. Promoter luciferase activity is then calculated by taking Firefly luciferase over Renilla luciferase.

[3] = primary screen, Renilla as readout for cell numbers, relative to DMSO
[4] = primary screen, NAMEC8-SERPINE1prom-Luc cells grown 3 days with compound, relative to DMSO
[5] = primary screen, […], relative to DMSO

Molecule	% Avr Renilla from DMSO [1, 3]	Avr FF/Renilla from DMSO [2, 4]	viability at 10 µM [1, 3] [%]	activity at 10 µM [2, 4] [%]	also measured
O=C(O)CCC/C=C\C[C@H]1C(=O)C=C[C@@H]1/C=C/[C@@H](O)COc1ccccc1 [16-phenoxy tetranor Prostaglandin A2]	82.64%	0.59			
CCCCc1oc2ccccc2c1C(=O)c1cc(I)c(OCCN(CC)CC)c(I)c1 [Amiodarone hydrochloride]			86.9	59	
COc1cccc(Nc2c(C(N)=O)cnc3c(C)cc(S(=O)(=O)c4cccc(C(=O)N(C)C)c4)cc23)c1 [GSK256066]					dose-dependent change of SERPINE1 promoter activity [2]: dose dependent decrease in SERPINE1 promoter activity
O=C(Nc1cccc(C(F)(F)F)c1)Nc1cc(S(=O)(=O)NC2CC2)ccc1-c1ccsc1 [AGI-6780]					dose-dependent change of SERPINE1 promoter activity [2]: dose dependent decrease in SERPINE1 promoter activity
CCCCC(C)(C)[C@H](O)/C=C/[C@H]1C(=O)C[C@H](O)[C@@H]1C/C=C\CCCC(=O)O [16,16-dimethyl Prostaglandin D2]	52.62%	0.48			
N#CC(=C(/N)Sc1ccccc1N)/C(C#N)=C(\N)Sc1ccccc1N [U0126]					viability at 10 µM [1]: 102%; activity at 10 µM [2]: 45%
CS(=O)(=O)N1CCc2c(-c3cnc(N)nc3)nc(N3CCOCC3)nc21 [CH5132799]			50.6	71	
COc1ccc(S(=O)(=O)N(CCO)c2ccccc2CN(C)C/C=C/c2ccc(Cl)cc2)cc1 [KN-93]	54.45%	0.59			
O=c1[nH]c(=O)n([C@H]2C[C@H](O)[C@@H](CO)O2)cc1Br [5-Bromo-2′-deoxyuridine]			65.7	67	
CCCCCC(O)/C=C/C1C(=O)CC(O)C1C/C=C\CCCC(=O)OCC(O)CO (stereo not shown) [Prostaglandin D2-1-glyceryl ester]	58.41%	0.59			
CC(=O)Nc1nc(C)c(-c2ccc(Cl)c(S(=O)(=O)NCCO)c2)s1 [PIK-93]	75.51%				Avr FF/Renilla from DMSO [2, 5]: 0.72
Cc1cccc(-c2[nH]c(C(C)(C)C)nc2-c2ccc3nccnc3c2)n1 [SB-525334]	51.73%	0.37			
CCCCCCCCc1ccc(-c2ccc(C(=O)O)cc2)cc1 [AC-55649]	106.55%	0.59			
N#C/C(=C\c1ccc(O)c(O)c1)C(=O)NCc1ccccc1 [AG-490]	64.03%	0.47			
Cc1cc(Nc2ncnc3ccc(NC4=NC(C)(C)CO4)cc23)ccc1Oc1ccn2ncnc2c1 [Arry-380]			67.3	73	
CC(=O)O[C@@]12C[C@@H](C)[C@@]3(O)[C@@H](C=C(CO)C[C@]4(O)C(=O)C(C)=C[C@@H]34)[C@@H]1C2(C)C [Prostratin]			146	55	
CCCCCCCCCCCCC/C=C/[C@@H](O)[C@H](CO)NC(=O)CCCCCCC [C-8 Ceramide]	70.74%	0.54			
CN(Cc1cnc2nc(N)nc(N)c2n1)c1ccc(C(=O)N[C@@H](CCC(=O)O)C(=O)O)cc1 [Abitrexate (Methotrexate), Methotrexate]			55.6	56	
COc1ccc(Br)cc1S(=O)(=O)NC(=O)/C=C/c1ccccc1Cc1ccc2ccccc2c1 [L-798106]	68.99%	0.13			
CN1CCc2cccc3c2[C@H]1Cc1ccc(O)c(O)c1-3 [Apomorphine hydrochloride hemihydrate]			85.1	84	
O=[N+]([O-])c1ccc(CNc2nc(NCc3cccc(C(F)(F)F)c3)nc3nc[nH]c23)cc1 [TNP]					% Avr Renilla from DMSO [1]: 80.47%; Avr FF/Renilla from DMSO [2]: 0.88

Molecule	% Avr Renilla from DMSO [1, 3]	Avr FF/Renilla from DMSO [2, 4]	viability at 10 µM [1, 3] [%]	activity at 10 µM [2, 4] [%]	also measured
CAY10587	72.88%	0.56			
CC1=C(/C=C/C(C)=C/C=C/C(C)=C\C(=O)O)C(C)(C)CCC1 [Isotretinoin]			84.1	37	
Cn1cc(C2=C(c3ccc(Cl)cc3Cl)C(=O)NC2=O)c2ccccc21 [SB 216763]	107.55%	0.56			
CC1(C)CNc2cc(NC(=O)c3cccnc3NCc3ccncc3)ccc21 [Motesanib Diphosphate (AMG-706), Motesanib Diphosphate]			50.9	70	
CCCCC[C@H](O)/C=C/[C@H]1[C@H](O)CC(=O)[C@@H]1CC(=O)CCCCC(=O)O [6-keto Prostaglandin E1]	79.67%	0.55			
C=CCc1ccccc1OCC(O)CNC(C)C (stereo not shown) [Alprenolol hydrochloride]			90.2	80	
C[N+]1(C)[C@@H]2CC[C@H]1C[C@@H](OC(=O)C(CO)c1ccccc1)C2 (stereo partly shown) [Atropine methyl nitrate]			103	68	
NC(=O)c1ccc(-c2nc(-c3ccccn3)c(-c3ccc4c(c3)OCO4)[nH]2)cc1 [SB 431542]	51.90%	0.50			
CCOC(=O)c1ccc(C#Cc2ccc3c(c2)C(C)(C)CCS3)nc1 [Tazarotene]			67	59	
CCCCC/C=C\C=C1\C(=O)C[C@H](O)[C@@H]1C/C=C\CCCC(=O)O [15-deoxy-_12,14-Prostaglandin D2]	68.09%	0.57			
CN([C@@H](Cc1ccc(OS(=O)(=O)c2cccc3cnccc23)cc1)C(=O)N1CCN(c2ccccc2)CC1)S(=O)(=O)c1cccc2cnccc12 [KN-62]	67.80%	0.43			
CCN(CC)CCCCNc1ncc2cc(-c3c(Cl)cccc3Cl)c(NC(=O)NC(C)(C)C)nc2n1 [PD-161570]	74.13%	0.39			
CNC(=O)c1ccc(C)c(-n2c(C)cc(OCc3ccc(F)cc3F)c(Br)c2=O)c1 [PH-797804]			53	67	
CCCn1c(=O)c2[nH]c(-c3ccc(S(=O)(=O)O)cc3)nc2n(CCC)c1=O [1,3-Dipropyl-8-p-sulfophenylxanthine]			103	61	
O=C(Nc1ccc2[nH]ncc2c1)C1CCC1 [Rhodblock 6]	89.97%	0.87			
CC1(C(=O)O)C2CCC(O2)C1(C)C(=O)O (stereo not shown) [Cantharidic Acid]			74.6		activity at 10 µM [2, 5]: 40%
NC(=O)c1ccc(-c2nc(-c3ccc4c(c3)OCCO4)c(-c3ccccn3)[nH]2)cc1 [D 4476]	53.26%	0.57			
CCCCC/C=C\C/C=C\C/C=C\C/C=C\CCCC(=O)NCc1ccoc1 [UCM707]	88.05%				Avr FF/Renilla from DMSO [2, 5]: 0.57
S=C(NCc1ccc2c(c1)OCO2)N1CCN(c2ncnc3c2oc2ccccc23)CC1 [Amuvatinib (MP-470)]	140.20% and 213.43%	0.37 and 0.23			
Cc1cccc(-c2nn(C(=S)Nc3ccccc3)cc2-c2ccnc3ccccc23)n1 [A83-01]					downregulation of SERPINE1prom-Luc ([2]; positive control treatment): at least 50%
